Results: patent US9549965B2, “Pharmaceutical composition for treating a microbial infection” (HELPERBY THERAPEUTICS LIMITED, priority 2010, dated 2017)
Structures can show the parent of a compound that is named as a salt. Where two headings read alike, the source gives them in different places.

Columns and labels:
[1] = tested on: stationary phase S. aureus; test: Bactericidal activity against stationary phase S. aureus (CFU counts); format: cell-based, Staphylococcus aureus; conditions: Staphylococcus aureus, read-out: Log Kill; for log reduction at 6.25 µg/mL: 6.25 μg/ml; for log reduction at 12.5 µg/mL: 12.5 μg/ml; for log reduction at 25 µg/mL: 25 μg/ml
Procedure: Staphylococcus aureus (Oxford strain); Gram positive; Reference strain.
(§1) Bacteria were grown in 10 ml of nutrient broth (No. 2 (Oxoid)) overnight at 37° C., with continuous shaking at 120 rpm. The overnight cultures were diluted (1000×) in 100 ml of growth medium and then incubated without shaking for 10 days. Viability of the bacteria was estimated by colony forming unit (CFU) counts at 2 hour intervals at the first 24 hours and at 12-24 hours afterwards. From serial 10-fold dilutions of the experimental cultures, 100 μl samples were added to triplicate plates of nutrient agar plates (Oxoid) and blood agar plates (Oxoid). Colony forming units (CFU) were counted after incubation of the plates at 37° C. for 24 hours.
(§2) Cultures incubated for more than 24 hours are in the stationary phase. For drug screening, 5-6 day old stationary phase cultures were used.
(§3) Different concentrations of each test compound were incubated with stationary phase cultures (5-6 day cultures) in 96 well plates for 24 or 48 hours. Bactericidal activity was then determined by taking CFU counts of the resulting cultures, as described above.

[2] = tested on: stationary phase E. coli; test: Bactericidal activity against stationary phase E. coli (CFU counts); format: cell-based, Escherichia coli; conditions: Escherichia coli, read-out: Log kill; for log reduction at 6.25 µg/mL: 6.25 μg/ml; for log reduction at 12.5 µg/mL: 12.50 μg/ml; for log reduction at 25 µg/mL: 25.00 μg/ml
Procedure: (§4) Escherichia coli K12; Gram negative; Reference strain.
as §1, §2, §3

[3] = tested on: log phase E. coli; test: MIC against log phase E. coli; format: cell-based, Escherichia coli
Procedure: as §4
The above-described overnight cultures were diluted (1000×) with iso-sensitest broth. The cultures were then incubated at 37° C. with shaking for 1-2 hours to reach log CFU 6, which served as log phase cultures.
The bactericidal activity of the drugs against log phase cultures were determined by minimal inhibitory concentration (MIC) of the drugs, which is defined as the lowest concentration which inhibits visible growth. Different concentrations of each test compound were incubated with the log-phase cultures in 96 well plates for 24 hours. Bactericidal activity was then examined by taking a spectrophotometer reading (using a plate reader) at 405 nm.

[4] = tested on: NDM-1 Klebsiella pneumoniae; test: Chequerboard analysis with colistin against NDM-1 Klebsiella pneumoniae; format: cell-based
[5] = tested on: persistent E. coli; test: Bactericidal activity against persistent E. coli selected by gentamicin; format: cell-based, Escherichia coli
Procedure: as §4
An antibiotic (gentamicin) was added to 5-6 day stationary-phase cultures to the final concentration of 50 to 100 μg/ml for 24 hours. After 24 hours of antibiotic treatment, the cells are washed 3 times with phosphate buffered saline (PBS), and then resuspended in PBS. The surviving bacterial cells are used as persisters. Viability is estimated by CFU counts. The persisters were then used in measurements of bactericidal activity for test compounds.
Different concentrations of each test compound were incubated with the (persister) cell suspension in 96 well plates for various periods of time (24 and 48 hours). Bactericidal activity was then determined by taking CFU counts of the resulting cultures, as described above.

[6] = Escherichia coli, read-out: MIC

| Compound | log reduction at 6.25 µg/mL [1] | log reduction at 12.5 µg/mL [1] | log reduction at 25 µg/mL [1] | log reduction at 6.25 µg/mL [2] | log reduction at 12.5 µg/mL [2] | log reduction at 25 µg/mL [2] | MIC [3, 6] | also measured |
| --- | --- | --- | --- | --- | --- | --- | --- | --- |
| Oc1ccc(O)cc1 [Hydroquinone] | 6.15 | 6.15 | 6.15 | 6.14 | 6.14 | 6.14 | > 50 µg/mL |  |
| CN(C)CCOc1ccc(/C(=C(/CCCl)c2ccccc2)c2ccccc2)cc1 [Toremifene citrate] | 6.15 | 6.15 | 6.15 |  |  |  |  |  |
| CN1CCN(CCCN2c3ccccc3Sc3ccc(C(F)(F)F)cc32)CC1 [Trifluoperazine hydrochloride] | 0 | 2.22 | 6.03 | -0.12 | 6.14 | 6.14 | 20 µg/mL | spectrophotometer reading ([4]; trifluoperazine hydrochloride 0.25 mg/L alone): 0.96; spectrophotometer reading ([4]; trifluoperazine hydrochloride 0.5 mg/L alone): 0.95; spectrophotometer reading ([4]; trifluoperazine hydrochloride 1 mg/L alone): 0.94; spectrophotometer reading ([4]; trifluoperazine hydrochloride 2 mg/L alone): 0.96; spectrophotometer reading ([4]; trifluoperazine hydrochloride 4 mg/L alone): 0.95; spectrophotometer reading ([4]; trifluoperazine hydrochloride 8 mg/L alone): 0.97; spectrophotometer reading ([4]; trifluoperazine hydrochloride 16 mg/L alone): 0.98; spectrophotometer reading ([4]; trifluoperazine hydrochloride 32 mg/L alone): 0.95; spectrophotometer reading ([4]; trifluoperazine hydrochloride 64 mg/L alone): 0.77; spectrophotometer reading ([4]; trifluoperazine hydrochloride 128 mg/L alone): 0.87; spectrophotometer reading ([4]; trifluoperazine hydrochloride 256 mg/L alone): 1.33 |
| COc1cccc2c1C(=O)c1c(O)c3c(c(O)c1C2=O)C[C@@](O)(C(=O)CO)C[C@@H]3O[C@H]1C[C@H](N)[C@H](O)[C@H](C)O1 [Doxorubicin] |  |  |  | 6.14 | 6.14 | 6.14 | > 50 µg/mL |  |
| CCN(CC)CCCC(C)Nc1c2ccc(Cl)cc2nc2ccc(OC)cc12 (stereo not shown) [Quinacrine hydrochloride] |  |  |  | 1.27 | 2.14 | 6.14 | > 50 µg/mL |  |
| Vitamin B12 |  |  |  |  |  |  |  | MIC [3]: — (— signifies MIC higher than 50 μg/ml); Log Kill ([5]; 6.25 μg/ml): 0.03; Log Kill ([5]; 12.5 μg/ml): 6.21; Log Kill ([5]; 25 μg/ml): 6.21 |
